Source: ChEMBL document CHEMBL4431324, “Comparative Analysis of Binding Kinetics and Thermodynamics of Dipeptidyl Peptidase-4 Inhibitors and Their Relationship to Structure” (J Med Chem, 2016)

Tests used:
[1] = target: T1, Muscarinic acetylcholine receptor M2 (Homo sapiens, UniProt P08172); assay: Inhibition of M2 receptor (unknown origin)
T1 sequence (P08172 whole entry): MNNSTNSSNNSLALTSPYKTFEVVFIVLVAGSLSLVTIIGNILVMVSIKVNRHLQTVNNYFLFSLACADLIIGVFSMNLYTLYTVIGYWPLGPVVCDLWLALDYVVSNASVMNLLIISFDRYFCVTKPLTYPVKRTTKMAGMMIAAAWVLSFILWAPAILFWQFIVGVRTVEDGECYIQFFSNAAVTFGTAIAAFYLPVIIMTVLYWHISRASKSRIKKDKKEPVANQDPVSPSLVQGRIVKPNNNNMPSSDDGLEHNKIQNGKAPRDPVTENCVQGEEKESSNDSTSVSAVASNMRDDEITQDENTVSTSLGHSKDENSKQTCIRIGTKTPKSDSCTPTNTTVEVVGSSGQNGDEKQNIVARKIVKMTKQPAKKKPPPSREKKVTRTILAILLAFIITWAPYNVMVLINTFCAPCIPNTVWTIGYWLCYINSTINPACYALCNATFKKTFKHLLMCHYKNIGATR

[2] = target: Muscarinic acetylcholine receptor M3 (Homo sapiens, UniProt P20309); assay: Inhibition of M3 receptor (unknown origin)
Muscarinic acetylcholine receptor M3, sequence (P20309 whole entry): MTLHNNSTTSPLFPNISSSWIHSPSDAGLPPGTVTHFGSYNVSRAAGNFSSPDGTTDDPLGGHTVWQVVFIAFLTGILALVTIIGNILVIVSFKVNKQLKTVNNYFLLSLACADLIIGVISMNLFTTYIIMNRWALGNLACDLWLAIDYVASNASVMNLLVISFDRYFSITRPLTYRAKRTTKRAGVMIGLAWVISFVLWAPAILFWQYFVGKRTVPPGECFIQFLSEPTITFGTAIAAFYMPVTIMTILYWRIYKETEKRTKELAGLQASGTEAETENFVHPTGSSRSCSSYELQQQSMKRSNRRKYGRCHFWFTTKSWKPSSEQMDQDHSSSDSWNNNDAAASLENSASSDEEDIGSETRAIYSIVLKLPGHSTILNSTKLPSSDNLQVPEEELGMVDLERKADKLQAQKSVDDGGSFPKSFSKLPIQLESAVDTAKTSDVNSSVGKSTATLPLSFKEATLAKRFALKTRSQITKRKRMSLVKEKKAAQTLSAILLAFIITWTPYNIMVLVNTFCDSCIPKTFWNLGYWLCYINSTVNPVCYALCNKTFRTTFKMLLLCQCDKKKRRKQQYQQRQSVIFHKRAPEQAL

[3] = Lipophilicity, log D of the compound at pH 7.4; format: physicochemical; settings: buffer
[4] = target: T2, Dipeptidyl peptidase 4 (Homo sapiens, UniProt P27487)
T2 sequence (P27487 whole entry): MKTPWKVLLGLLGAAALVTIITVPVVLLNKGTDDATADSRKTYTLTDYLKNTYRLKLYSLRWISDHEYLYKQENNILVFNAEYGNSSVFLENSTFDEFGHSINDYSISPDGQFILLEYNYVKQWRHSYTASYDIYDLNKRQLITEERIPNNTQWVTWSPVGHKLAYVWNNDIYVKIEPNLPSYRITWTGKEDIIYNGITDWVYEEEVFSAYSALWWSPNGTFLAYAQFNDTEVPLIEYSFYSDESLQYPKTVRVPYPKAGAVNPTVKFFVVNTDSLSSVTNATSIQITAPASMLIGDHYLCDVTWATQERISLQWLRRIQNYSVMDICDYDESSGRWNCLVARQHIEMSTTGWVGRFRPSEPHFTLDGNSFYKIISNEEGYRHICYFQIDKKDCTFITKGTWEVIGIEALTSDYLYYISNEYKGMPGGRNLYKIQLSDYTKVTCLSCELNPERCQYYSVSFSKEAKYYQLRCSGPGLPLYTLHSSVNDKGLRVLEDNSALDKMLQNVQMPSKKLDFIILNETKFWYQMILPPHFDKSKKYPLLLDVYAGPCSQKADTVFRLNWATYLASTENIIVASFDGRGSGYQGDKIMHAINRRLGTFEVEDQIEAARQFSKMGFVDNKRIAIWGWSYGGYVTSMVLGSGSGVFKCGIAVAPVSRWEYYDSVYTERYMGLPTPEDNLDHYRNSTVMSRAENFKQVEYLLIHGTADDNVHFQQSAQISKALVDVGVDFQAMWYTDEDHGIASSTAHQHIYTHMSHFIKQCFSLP
Description: Binding affinity to human recombinant DPP4 (39 to 766 residues) by surface plasmon resonance analysis

[5] = target: T2, Dipeptidyl peptidase 4; remark: listed apart in the source
[6] = Cmax in human plasma at 5 mg; format: ADME, cell-free; set-up: dose 5 mg
[7] = Renal clearance in wild type mouse at 0.01 mg/kg, iv; format: ADME, organism-based; settings: in vivo
[8] = Renal clearance in DPP4 knockout mouse at 0.01 mg/kg, iv; format: ADME, organism-based; settings: in vivo

Work on `CC(C)=CCn1c(N2CCC[C@H](N)C2)nc2c1c(=O)n(CC(=O)c1ccccc1)c(=O)n2C` yielded an IC50 [1] of 150 nM, an IC50 [2] of 150 nM and a logD [3] of 0 to 1.6.
`Cn1c(=O)c2c(nc(N3CCCC(N)C3)n2Cc2ccccc2)n(C)c1=O` (stereo unspecified) showed a logD [3] of 0 to 1.6.
For `O=c1[nH]c(=O)c2c(nc(N3CCNCC3)n2Cc2ccccc2)[nH]1`, the Kd [4] was 806 nM, the Kd [5] was 246 nM and the logD [3] was 0 to 1.6.
`CC#CCn1c(N2CCC[C@@H](N)C2)nc2c1c(=O)n(Cc1nc(C)c3ccccc3n1)c(=O)n2C` [LINAGLIPTIN] gave a Cmax [6] of 10 nM, a CL [7] of 2.7% and a CL [8] of 24.2%. For the same compound, the logD [3] was 0 to 1.6.
